Test results: the NIST ThermoML archive (doi:10.1021/je100353j)
“And” between values parts separate entries of the source, which are not always exact repeats. Identical values can stand only once. Numbers after ± are expanded uncertainties.

Legend:
[1] = Liquid
[2] = xn = mol fraction of the nth substance listed; settings: Liquid, x2 = 0

C1CCCCC1 [cyclohexane]
mass density [kg/m3], [1]
Settings | 101.33 kPa | 5000 kPa | 10000 kPa | 20000 kPa | 30000 kPa | 40000 kPa
293.15 K | 778.8 ± 0.5 | 782.8 ± 0.7 | 786.6 ± 0.8 | 793.9 ± 1.1 | 801 ± 1.4 | 807.8 ± 1.7
298.15 K | 773.9 ± 0.6 | 778.3 ± 0.7 | 782.3 ± 0.9 | 789.8 ± 1.1 | 796.7 ± 1.4 | 802.9 ± 1.7
303.15 K | 769.3 ± 0.6 | 773.6 ± 0.7 | 777.8 ± 0.9 | 785.7 ± 1.2 | 792.8 ± 1.4 | 799.2 ± 1.7
308.15 K | 764.5 ± 0.6 | 769 ± 0.7 | 773.4 ± 0.9 | 781.5 ± 1.2 | 788.8 ± 1.5 | 795.5 ± 1.7
313.15 K | 759.7 ± 0.6 | 764.5 ± 0.7 | 768.9 ± 0.9 | 777.4 ± 1.2 | 784.8 ± 1.5 | 791.8 ± 1.8

C1CCCCC1 [cyclohexane] + COC(=O)OC
mass density [kg/m3], [2]
Settings | 100 kPa | 5000 kPa | 10000 kPa | 20000 kPa | 30000 kPa | 40000 kPa
293.15 K | 778.8 ± 0.5 | 782.8 ± 0.7 | 786.6 ± 0.8 | 793.9 ± 1.1 | 801 ± 1.4 | 807.8 ± 1.7
298.15 K | 773.9 ± 0.6 | 778.3 ± 0.7 | 782.3 ± 0.9 | 789.8 ± 1.1 | 796.7 ± 1.4 | 802.9 ± 1.7
303.15 K | 769.3 ± 0.6 | 773.6 ± 0.7 | 777.8 ± 0.9 | 785.7 ± 1.2 | 792.8 ± 1.4 | 799.2 ± 1.7
308.15 K | 764.5 ± 0.6 | 769 ± 0.7 | 773.4 ± 0.9 | 781.5 ± 1.2 | 788.8 ± 1.5 | 795.5 ± 1.7
313.15 K | 759.7 ± 0.6 | 764.5 ± 0.7 | 768.9 ± 0.9 | 777.4 ± 1.2 | 784.8 ± 1.5 | 791.8 ± 1.8

COC(=O)OC [dimethyl carbonate]
mass density, [1]
Settings | 101.33 kPa | 5000 kPa | 10000 kPa | 20000 kPa | 30000 kPa | 40000 kPa
293.15 K | 1069.8 ± 0.4 kg/m3 | 1074.4 ± 0.5 kg/m3 | 1078.6 ± 0.5 kg/m3 | 1086.9 ± 0.6 kg/m3 | 1094.5 ± 0.8 kg/m3 | 1101.9 ± 1 kg/m3
298.15 K | 1063.2 ± 0.4 kg/m3 | 1068 ± 0.5 kg/m3 | 1072.4 ± 0.5 kg/m3 | 1080.8 ± 0.6 kg/m3 | 1088.7 ± 0.8 kg/m3 | 1096.2 ± 1 kg/m3
303.15 K | 1056.5 ± 0.4 kg/m3 | 1061.3 ± 0.5 kg/m3 | 1066 ± 0.5 kg/m3 and 1065 ± 0.5 kg/m3 | 1074.7 ± 0.6 kg/m3 | 1082.9 ± 0.7 kg/m3 | 1090.4 ± 0.9 kg/m3
308.15 K | 1049.8 ± 0.4 kg/m3 | 1054.6 ± 0.4 kg/m3 | 1059.4 ± 0.5 kg/m3 | 1068.5 ± 0.6 kg/m3 | 1077 ± 0.7 kg/m3 | 1084.8 ± 0.9 kg/m3
313.15 K | 1043 ± 0.4 kg/m3 | 1048.1 ± 0.4 kg/m3 | 1053 ± 0.5 kg/m3 | 1062.3 ± 0.5 kg/m3 | 1071 ± 0.7 kg/m3 | 1079 ± 0.8 kg/m3
